Read-outs that look alike come from different tables or passages of the source.
Legend:
Nox1 = target: T1, Nox1 (Homo sapiens, UniProt Q9Y5S8); conditions: Bae et al. 2016; cited from earlier work
T1 construct: host or cells: drosophila
T1 sequence (Q9Y5S8 1-564): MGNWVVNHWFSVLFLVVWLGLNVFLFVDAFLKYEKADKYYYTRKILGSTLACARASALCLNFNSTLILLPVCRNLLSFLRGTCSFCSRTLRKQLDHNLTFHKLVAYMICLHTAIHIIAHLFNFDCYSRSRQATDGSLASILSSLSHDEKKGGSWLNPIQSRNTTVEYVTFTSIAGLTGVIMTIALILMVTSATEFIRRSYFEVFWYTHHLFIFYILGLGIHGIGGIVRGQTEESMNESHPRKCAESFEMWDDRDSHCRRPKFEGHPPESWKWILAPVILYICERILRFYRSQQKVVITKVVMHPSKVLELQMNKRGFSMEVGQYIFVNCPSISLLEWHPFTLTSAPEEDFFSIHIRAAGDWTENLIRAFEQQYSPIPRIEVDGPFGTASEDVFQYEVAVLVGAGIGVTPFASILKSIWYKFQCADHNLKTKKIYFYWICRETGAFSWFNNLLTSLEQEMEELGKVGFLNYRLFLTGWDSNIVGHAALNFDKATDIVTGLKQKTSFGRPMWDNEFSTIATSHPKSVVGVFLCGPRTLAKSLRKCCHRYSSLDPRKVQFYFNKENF

dopaminergic neurons = conditions: experimental models of PD; Cristóvão et al. 2019; cited from earlier work
[1] = Solubility in water and PBS (saturation, UV-spectroscopy); assay type: physicochemical; conditions: thermodynamic from solid, 37° C., minimum 72 h
Procedure: In an embodiment, the solutes N1(4)inh and mixture comprising [Chol]2[N1(4)inh]+N1(4)inh were added in excess to a fixed volume (500 μL) of water and PBS solution. These mixtures were incubated at 37° C., under constant agitation 1150 rpm and for a minimum of 72 h, using an Eppendorf Thermomixer Comfort equipment. Throughout this process, solute was added to the mixture, whenever necessary, i.e., until the solution saturation. All samples were filtered using syringe filters ([…]) to remove possible suspended solid particles.
(§1) In an embodiment, the quantification of N1(4)inh and [Chol]2[N1(4)inh] was carried by UV-spectroscopy, using a UV-spectrophotometry (SYNERGY|HT microplate reader, BioTek) at a wavelength of 416 nm and 480 nm, respectively. The interference of the PBS with the quantification method was also ascertained and blank control samples were always used.
as §1, with “embodiment, solutes (N1(4)inh and [Chol]2[N1(4)inh]+N1(4)inh) were added in excess to a fixed volume (500 μL) of water and PBS solution. […] The” for “embodiment, the”, “and [Chol]2[N1(4)inh]+N1(4)inh” for “and [Chol]2[N1(4)inh]”

[2] = Decomposition temperature by thermogravimetric analysis (TGA); assay type: physicochemical; conditions: TGA (FIG. 5)
Procedure: In an embodiment, the decomposition temperature of [Chol]2[N1(4)inh]+N1(4)inh was evaluated by thermogravimetric analysis (TGA) and the results disclose that the mixture is thermally stable up to 200° C., as disclosed in FIG. 5.
In an embodiment, the decomposition temperature was determined by thermogravimetric analysis (TGA).

Nox4 = target: T2, Nox4 (Homo sapiens, UniProt Q9NPH5); conditions: Bae et al. 2016; cited from earlier work
T2 construct: host or cells: drosophila
T2 sequence (Q9NPH5 1-578): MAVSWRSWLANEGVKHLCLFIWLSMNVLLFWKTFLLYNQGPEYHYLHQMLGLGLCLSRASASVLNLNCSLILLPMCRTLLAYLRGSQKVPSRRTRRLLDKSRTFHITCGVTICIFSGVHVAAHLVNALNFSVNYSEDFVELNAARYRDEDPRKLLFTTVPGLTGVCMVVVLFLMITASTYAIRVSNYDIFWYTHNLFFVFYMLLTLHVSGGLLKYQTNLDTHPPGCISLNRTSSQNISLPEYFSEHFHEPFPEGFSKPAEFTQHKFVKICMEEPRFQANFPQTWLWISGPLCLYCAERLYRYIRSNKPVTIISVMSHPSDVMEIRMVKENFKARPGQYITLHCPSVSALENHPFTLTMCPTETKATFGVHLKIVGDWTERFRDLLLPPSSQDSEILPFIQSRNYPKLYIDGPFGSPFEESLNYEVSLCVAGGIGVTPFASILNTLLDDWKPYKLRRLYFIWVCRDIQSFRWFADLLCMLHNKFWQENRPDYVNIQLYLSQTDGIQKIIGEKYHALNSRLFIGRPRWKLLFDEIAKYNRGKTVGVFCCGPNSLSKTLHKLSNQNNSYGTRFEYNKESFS

CN1C(=S)N(C2CCCCC2)C(=O)C1=Cc1ccc(O)cc1O [N1(4)inh, 3-cyclohexyl-5-(2,4-dihydroxybenzylidene)-1-methyl-2-thiohydantoin]
inhibition of Nox1 (Nox1): effective inhibitor
neuroprotective potential (dopaminergic neurons): high neuroprotective potential
solubility ([1]; aqueous buffer, PBS, read-out: solubility in PBS): 8 ± 1 µg/mL
solubility ([1]; water, read-out: solubility in water): 11 ± 2 µg/mL
decomposition temperature (thermal stability) [2]: 200 °C
inhibition of Nox4 (Nox4): partial inhibitor

Reference: patent US12514845B2, “Ionic-liquid-based formulations for the prevention or treatment of neurological diseases” (Universidade De Aveiro, priority 2022, dated 2026)
